System: C. difficile
Experiment: mouse acute CDI model using dextran sulfate sodium (DSS), survival rate after oral administration
Type: in vivo
Settings: for Mouse survival rate (%) according to type of administered drug: 10 mg/kg of vancomycin alone
Protocol: FIG. 3 is a diagram sequentially illustrating a series of experiments of being treated with dextran sodium sulfate (DSS), being infected with C. difficile, being administered with a bentonite-vancomycin complex, and observing survival rates, in order to produce a mouse acute CDI model. […]
In order to set the mixing ratio of the bentonite-antibiotics complex, vancomycin was orally administered at concentrations of 2, 20, and 200 mg/kg in a mouse acute CDI model using DSS, and the results were shown in Table 2 below and FIG. 5.
In order to confirm a synergistic effect on CDI treatment through the bentonite-antibiotics complex, according to the daily intake, the bentonite was administered at a dose concentration of 50 mg/kg and the vancomycin was administered at a dose concentration of 5 mg/kg, and the survival rates of mice were confirmed as compared to cases of administering 10 mg/kg of vancomycin alone, 50 mg/kg of bentonite alone, and saline alone as control groups thereto.

CN[C@H](CC(C)C)C(=O)N[C@H]1C(=O)N[C@@H](CC(N)=O)C(=O)N[C@H]2C(=O)N[C@H]3C(=O)N[C@H](C(=O)N[C@H](C(=O)O)c4cc(O)cc(O)c4-c4cc3ccc4O)[C@H](O)c3ccc(c(Cl)c3)Oc3cc2cc(c3O[C@@H]2O[C@H](CO)[C@@H](O)[C@H](O)[C@H]2O[C@H]2C[C@](C)(N)[C@H](O)[C@H](C)O2)Oc2ccc(cc2Cl)[C@H]1O [Vancomycin, vancomycin]
Mouse survival rate (%) according to type of administered drug (D+14): 1/6 (17%)
Mouse survival rate (%) according to type of administered drug (D-0): 6/6 (100%)
Mouse survival rate (%) according to vancomycin dose (vancomycin 2 mg/kg orally, D+14): (20%)
Mouse survival rate (%) according to vancomycin dose (vancomycin 2 mg/kg orally, D+14, listed as vancomycin): 20%
Mouse survival rate (%) according to vancomycin dose (vancomycin 2 mg/kg orally, D-0): (100%)
Mouse survival rate (%) according to vancomycin dose (vancomycin 20 mg/kg orally, D+14): 5/5 (100%)
Mouse survival rate (%) according to vancomycin dose (vancomycin 20 mg/kg orally, D+14, listed as vancomycin): 100%
Mouse survival rate (%) according to vancomycin dose (vancomycin 20 mg/kg orally, D-0): 5/5 (100%)
Mouse survival rate (%) according to vancomycin dose (vancomycin 200 mg/kg orally, D+14): 5/5 (100%)
Mouse survival rate (%) according to vancomycin dose (vancomycin 200 mg/kg orally, D+14, listed as vancomycin): 100%
Mouse survival rate (%) according to vancomycin dose (vancomycin 200 mg/kg orally, D-0): 5/5 (100%)

— patent US20240024412A1, “PHARMACEUTICAL COMPOSITION FOR TREATING CDI COMPRISING CLAY MINERAL COMPLEX, AND METHOD FOR PRODUCING SAME” (priority 2020, published 2024)
